Laboratory results taken from ChEMBL document CHEMBL1154967, “Bioactive bromophycolides R-U from the Fijian red alga Callophycus serratus” (J Nat Prod, 2010).
In brackets after ≈: the same amount, converted by molar mass.

Experiments:
Enterococcus faecium = test: Antibacterial activity against vancomycin resistant Enterococcus faecium ATCC 700221; format: functional, organism-based
Staphylococcus aureus = test: Antibacterial activity against methicillin resistant Staphylococcus aureus ATCC 33591; format: functional, organism-based
Candida albicans = test: Antifungal activity against amphotericin resistant Candida albicans ATCC 90873 after 12 to 15 hrs by Alamar Blue assay; format: functional, organism-based
[1] = tested on: Mycobacterium tuberculosis; test: Antitubercular activity against Mycobacterium tuberculosis […] ATCC 27294 after 4 days by microplate alamar blue assay; format: functional; settings: 96 h
Plasmodium falciparum = test: Antimalarial activity against Plasmodium falciparum assessed as SYBR Green uptake after 48 hrs; format: functional, organism-based

Structure (SMILES)	IC50 (Enterococcus faecium)	IC50 (Staphylococcus aureus)	IC50 (Candida albicans)	MIC [1]	IC50 (Plasmodium falciparum)
CC1=CC[C@H](Br)[C@@]2(C)CC[C@@H](Br)[C@@]3(C)CC[C@H](OC(=O)c4ccc(O)c(c4)C[C@H]12)C(C)(C)O3 [BROMOPHYCOLIDE U]	900 nM	900 nM	> 15000 nM	22 µM (≈ 12.9 µg/mL)	2100 nM
C=C1CC[C@H](Br)[C@@]2(C)CC[C@@H]3O[C@@]3(C)CC[C@@H](C(C)(C)Br)OC(=O)c3ccc(O)c(c3)C[C@H]12 [BROMOPHYCOLIDE S]	3800 nM	> 15000 nM	> 15000 nM	23 µM (≈ 13.4 µg/mL)	900 nM
C=C(C)[C@@H]1CC[C@]2(C)O[C@H]2CC[C@@]2(C)[C@H](Cc3cc(ccc3O)C(=O)O1)C(=C)CC[C@@H]2Br [BROMOPHYCOLIDE R]	> 15000 nM	> 15000 nM	> 15000 nM	> 50 µM	1700 nM
